Results from patent US20260133203A1, “DETECTION OF FUMARATE-DERIVED MODIFICATION IN A TEST SAMPLE” (UNIVERSITY OF SOUTH CAROLINA, priority 2017, published 2026).
Counter-ions that a name gives are not always drawn.

How the values were obtained:
heme oxygenase 1 (HO-1) = assay: Western blot of HO-1 expression after DMF treatment; format: cell-based
Description: N1E-115 cells (subclone N1E-115-1 neuroblastoma cells) were obtained from Sigma (08062511, St. Louis, MO). The cells were grown and expanded in non-differentiation medium (NDM): 90% DMEM (Gibco™, Grand Island, NY) with 25 mM glucose, no pyruvate, 25 mM HEPES, 4 mM glutamine and 10% fetal bovine serum (FBS, Atlanta Biologicals, Atlanta, GA). At 80% confluence, the cells were differentiated into neurons in the presence of 2% FBS and 1.25% dimethyl sulfoxide in DMEM for 5 days. In addition to the assessment of the neuronal phenotype by light microscopy, the detection of synaptophysin protein levels was used to confirm successful differentiation. During the final 6 or 24 hours of differentiation, the cells were treated with 10-100 µM DMF and harvested as described above for primary neurons, with the addition of phosphatase inhibitors to the DPBS washes and the RIPA buffer used for scraping to prevent dephosphorylation of CRMP-2. […] To ensure that the succinated proteins detected were solely of neuronal origin, N1E-115 neuroblastoma cells were differentiated to a neuronal phenotype (confirmed by increased synaptophysin content) and treated with DMF for 24 hours. […]

[1] = molecular target: T1, Collapsin Response Mediator 2 (CRMP2) (Rattus norvegicus, UniProt P47942); assay: LC-MS/MS site mapping of CRMP2 peptide GLYDGPVCEVSVTPK succination; format: cell-based; settings: primary rat neurons, +2 charge-state, y8 and b8 fragment ions
T1 construct: Primary neurons from newborn rat brain cortices were isolated and cultured; endogenous in cells; host or cells: primary rat cortical neurons (postnatal day 1)
Description: Primary neurons from newborn rat brain cortices were isolated and cultured using an adaptation of methods described previously. Briefly, postnatal day 1 rats were sacrificed by decapitation, the brains were aseptically dissected, and cortices were separated from the rest of the brain in ice-cold Hibernate®-A medium (Life Technologies) containing 2% (v/v) B-27 supplement (Life Technologies) and 0.5 mM glutamine (Invitrogen™). The tissue was minced in fragments of about 1 mm3 with a scalpel and subjected to digestion with 2 mg/ml papain (Worthington) in the supplemented Hibernate®-A medium for 20 minutes at 30° C. in a shaker incubator set at 100 rpm. After thorough trituration through a fire-polished Pasteur pipette, the tissue was allowed to settle for 5 minutes and the supernatant was carefully layered on top of a discontinuous OptiPrep™ (Sigma-Aldrich™) gradient prepared in Hibernate®-A medium; the layers contained 35, 25, 20 and 15% OptiPrep™. […] After a centrifugation at 500 g for 5 min at room temperature, cells were resuspended in Neurobasal™—A medium containing 0.5 mM glutamine, 2% B-27 supplement, and 5 ng/ml bFGF (Invitrogen™); counted and plated on 24-well plates pretreated with 0.01% poly-L-lysine (Sigma-Aldrich™) at a density of 200,000 cells/well. […] The protein content in the different samples was determined by the Lowry assay. […]

## COC(=O)/C=C/C(=O)OC [DMF, dimethyl fumarate]
Heme oxygenase 1 (HO-1)
  HO-1 expression: significantly induced HO-1 expression
[1]
  site of succination on CRMP2: Cys504
